Experiment [1] has as its system human primed state stem cells. Nature of the experiment: stem cell drug screening assay on primed state stem cells. It counts as cell-based. Further details: key to effect on primed state stem cells, score: “−” indicates that at 6 uM the drug candidate did not have an obvious effect on the pluripotency or proliferation of the stem cells; A “+” indicates a mild effect; a score of −, or +, ++, +++, or ++++ is given; a score of −, or +, ++, +++, or ++++ is given; “++++” indicates a profound effect on pluripotency or proliferation. How it is done: (§1) The stem cell screening assay, was performed in both the presence and absence of the stem cell growth factors: NME7AB for growing naïve stem cells or FGF for growing primed stem cells. If the cognate growth factor was present, then the biological or small molecule would have to compete away the growth factor to get an effect. Therefore, we expected to see more of an effect when the growth factor, FGF for primed stem cells or NME7AB or NME1 dimers for naïve stem cells, was absent. The effect of the compounds on stem cells was visually determined and compounds were ranked 0-4, with 4 being the greatest effect and 0 being no observable effect. The major effect that was observed was a change from pluripotent stem cell morphology, which is a cobblestone pattern of small round cells with a large nucleus to cytoplasm ratio, to that of differentiating stem cells, which are elongated, large and flattened cells with a smaller nucleus to cytoplasm ratio. […] The compounds were added to a final concentration of 6 uM to either naïve state stem cells or primed state stem cells. In this particular case, the naïve state stem cells were maintained in a naïve state by culturing in a media containing NME7AB or NME1 dimers. However, other methods such as 2i and 5i (Silva et al., 2008, Nichols and Smith, 2009, Theunissen et al., 2014)] can be used to maintain stem cells in a more naïve state. In this case primed state stem cells were cultured in bFGF over a layer of MEFs, although it is known that any bFGF containing media will maintain stem cells in the primed state.
Stem cells whether embryonic or induced pluripotent stem (iPS) cells were cultured in a minimal, serum-free media that contained human recombinant bFGF at a concentration of 8 ng/mL. The stem cells were plated over a layer of inactivated mouse embryonic fibroblasts, aka MEFs, which secrete additional uncharacterized growth factors and cytokines.
(§2) Human naïve state and primed stem cells were cultured in parallel for at least 5 passages to guarantee normal differentiation-free growth. The stem cells were plated in 12-well cell culture plates with 50,000 cells per well. Cells were cultured in their respective media, either bFGF media or NME7AB media for 24 hours. Media was then removed and replaced with media devoid of bFGF or NME7AB, when indicated. Agents being tested for their ability to induce differentiation of naïve stem cells were added to the media at the concentrations indicated. After 72 hours, photographs were taken see FIGS. 1-10.
(§3) Human naïve state and primed stem cells were cultured in parallel for at least 5 passages to guarantee normal differentiation-free growth. The stem cells were plated in 12-well cell culture plates with 50,000 cells per well. Cells were cultured in their respective media, either bFGF media or NME7AB media for 24 hours. Media was then removed and replaced with media devoid of bFGF or NME7AB. […] Media was changed after 48 hours and replaced with fresh media containing the BRD4 inhibitors. After 4 days the experiment was stopped. Photographs were taken and cell pellets collected for further analysis, see FIGS. 11-16.

Experiment [2] has as its system human naïve state stem cells. The experiment can be described thus: stem cell drug screening assay on naïve state stem cells. Further details: key to effect on naïve stem cells, score: “−” indicates that at 6 uM the drug candidate did not have an obvious effect on the pluripotency or proliferation of the stem cells; A “+” indicates a mild effect; a score of −, or +, ++, +++, or ++++ is given; a score of −, or +, ++, +++, or ++++ is given; “++++” indicates a profound effect on pluripotency or proliferation. It counts as cell-based. The settings on record: 6 uM, 3 days, NME7AB absent. How it is done: as §1
Stem cells whether embryonic or induced pluripotent stem (iPS) cells were cultured in a minimal, serum-free media that contained human recombinant NME7AB at a concentration of 2-32 nM wherein 4-8 nM is preferred and 4 nM is more preferred. To facilitate surface attachment, cell culture plates were coated with an anti-MUC1* monoclonal antibody called MN-C3 or C3 or MN-C8 at a concentration of 2-100 ug/mL coating solution, wherein 3-50 ug/mL is preferred and 6-12.5 ug/mL is more preferred. In these experiments, 12.5 ug/mL of MN-C3 was used. Antibody coated plates were incubated at 4 degrees C. overnight prior to plating stem cells. A Rho kinase I inhibitor was added to enhance surface attachment. In some cases, NME7AB was substituted with human recombinant NME1 dimers which also induce stem cells to revert to a naïve-like state.
as §2, §3

Experiment [3] concerns T47D breast cancer cells. Nature of the experiment: cancer cell migration, invasion assay (Platypus/Oris system). It counts as cell-based, human. The settings on record: T47D; for inhibition of cancer cell migration: 120 hours; for IC50: Homo sapiens, curves calculated from 72 hour post dosing time point, read-out: IC50 of inhibition of cancer cell migration. How it is done:
We then tested an expanded panel of agents, including agents known to inhibit cancer growth or migration (FIG. 17) (Horm et al., 2012; Meng & Yue, 2014; Zhen et al., 2014), which is characteristic of aggressive or metastatic cancers. We also synthesized a series of novel small molecules, tested them in the stem cell drug screening assay, and then synthesized analogs of the best hits. These small molecules are pictured in FIGS. 18-27. Both the known compounds and the novel compounds were tested in the stem cell drug screening assay. The effects of the small molecules on naïve versus primed state stem cells are shown in the photographs of FIGS. 29-72. The small molecules pictured in FIGS. 17-27 and the biologicals were also tested in a cancer cell migration assay. A structure activity relationship table is seen in FIG. 28. Potent cancer cell migration is characteristic of cancer cell invasion of other tissues and of metastasis. Typical migration assays involve coating a cell culture plate with fibronectin, collagen or the like, plating cancer cells and making a scar across through the cells and measuring the time it takes for the cancer cells to invade the void space. An alternative approach that gives more reliable data is the Platypus System which is a special multi-well cell culture plate with a juxtaposed set of plugs that block off a circle in the center of each well. Cancer cells are plated while the plugs are in place, then they are removed after the cells attach to the plate surface. […] A bar graph summarizing the results of the known anti-migration compounds compared to the anti-MUC1* Fab E6 and the first few small molecules synthesized is shown in FIG. 73. The effect of two novel small molecules MN1186 and MN1194, compared to the known anti-migration molecule SU11274, is shown in FIG. 75A-75U. FIG. 75V is a graph showing the measured inhibition of cancer cell migration at time 0, 24 hours or 48 hours for a number of compounds. […] FIG. 75X is a graph showing how IC50's of the small molecules of the invention were measured and calculated.
Percent inhibition of cancer cell migration was performed in a wound healing assay. The Percent area that the invading cancer cells occupied, in the presence of a drug candidate compared to the controls, was quantified by Image J cell software which enables cell counting from photographs. IC50's were calculated by performing migration experiments at several compound concentrations and then applying Hill's equation. Inhibition of cancer cell proliferation was quantified by automated cell counting in the presence or absence of a drug candidate. Here, the potency of the drug candidate was simply scored 4 for the highest degree of inhibition and 0 for the lowest. […] The effect of each drug candidate was scored 0-4, with 4 being the highest in inhibiting cell proliferation (FIG. 28).
For the cancer cell migration experiment cancer cells were plated at varying densities into an Oris Cell Migration Assay Collagen-1 coated 96-well plate (Platypus Technologies LLC, Madison, Wis.). The Collagen-1 coated 96-well plate incorporates a specific vacuum plug which attaches to the bottom of each well, creating an area in which the cells cannot grow into. Once the cells have been plated at high densities into each well, they are allotted an 18-24 hour time period to attach to the bottom of the wells. Post-24 hour plugs are removed from the plate and then small molecule analogs are added to the wells. Images are taken of each well and represent time 0 (T=0) for each well. Images are taken of the wells at the 24, 48, 72, 96 and 120 hour time points. Data analysis is conducted using the images taken at these specific time point. Images are imported into ImageJ (Rasband, W. S., ImageJ, U. S. National Institutes of Health, Bethesda, Md., USA, http://imagej.nih.gov/ij/, 1997-2016.) and the area remaining free of cells is calculated. […]

In experiment [4] the test system is T47D breast cancer cells. Nature of the experiment: cancer cell proliferation assay (Calcein live cell stain). The class given is cell-based, human. The following applies: T47D, Calcein assay after 120 hours, 40-2.5 uM. How it is done:
These analogs of MN1194 and 1186 were also tested in a cell growth assay (FIGS. 107A1-107H6 and FIG. 108A1-108H6, respectively). In this experiment, both parent compound and analogs thereof were added to normal cell culture media to final concentrations of 40 uM, 20 uM, 10 uM, 5 uM or 2.5 uM. For comparison, previously known cancer cell migration inhibitors SU11274 and MN1204 were included in the same experiment. […] Relative cell proliferation is quantified on a standard plate reader that reads the fluorescence of the Calcein that is taken up by live cells.
Small molecule inhibition of cancer cell proliferation studies were also performed on several cancer sub-types. […] The small molecules of the invention had the most robust effect on T47D breast cancer cells, which are highly positive for MUC1* growth factor receptor, and its activating ligands NME7AB and NME7-X1.
For the cancer cell proliferation experiment cancer cells were plated at constant densities (6000 cells/well) into a 96-well White-walled/Clear-bottom Tissue Culture Treated plate (Corning Incorporated, Big Flats, N.Y.). Small molecule analogs are added at T=24 hours in media with 2% FBS. Following the addition of the small molecules, the cells remain untouched for 120 hours with visual confirmations/inspections at 24, 48, 72 and 96 hours post plating. At the 120 hour mark a calcein fluorescence assay (Thermo Fisher Scientific, Waltham, Mass.) is performed on the plate. Calcein fluorescence (final concentration 0.5 uM) is used to assess cell viability. Cancer cell fluorescence is measured in a TECAN SAFIRE^2 spectrophotometer plate reader. The plate is then imaged using an Olympus IX71 fluorescence imaging microscope and montage of the resulting images are assembled using ImageJ.

For `Cc1sc2c(c1C)C(c1ccc(Cl)cc1)=N[C@@H](CC(=O)OC(C)(C)C)c1nnc(C)n1-2` [JQ1(−), JQ1], the “induction of differentiation of primed state stem cells” value in experiment [1] (treated for 3 days, bFGF absent) is listed as “None of these agents appeared to induce differentiation”.
Take `CC(C)CC1c2[nH]c3ccccc3c2CCN1C(=O)CNC(=O)OC(C)(C)C` (centres unmarked) [MN1186]: the “effect on naïve stem cells, score” value in experiment [2] is recorded as “++++”. Moreover, the “effect on primed state stem cells, score” value in experiment [1] (6 uM, 3 days, FGF absent) is given as “++”. Further, in the experiment with T47D breast cancer cells [3], the “inhibition of cancer cell migration” value was “most potent inhibitors of cancer cell migration”.
Take `CC(C)CC1c2[nH]c3ccccc3c2CCN1C(=O)CCCNC(=O)OC(C)(C)C` (centres unmarked) [MN1190]: the “inhibition of cancer cell migration” value in the experiment on T47D breast cancer cells [3] was “improvements over MN1186”. For the same compound, the “inhibition of cancer cell proliferation relative to parent compounds” value in the experiment with T47D breast cancer cells [4] is on record as “inhibit cancer cell proliferation better than parent compounds”.
As to `CC(C)CC1c2[nH]c3ccccc3c2CCN1C(=O)CCCCNC(=O)OC(C)(C)C` (centres unmarked) [MN1194], the “effect on naïve stem cells, score” value in experiment [2] was “++++”. Also, in experiment [1] (6 uM, 3 days), the “effect on primed stem cell pluripotency, growth or differentiation (visually determined)” value is given as “barely affected”. Also, in the experiment on T47D breast cancer cells [3], the “inhibition of cancer cell migration” value is “most potent inhibitors of cancer cell migration”.
`CC(C)CC1c2[nH]c3ccccc3c2CCN1C(=O)CCCCCNC(=O)OC(C)(C)C` (centres unmarked) [MN1195]: the “inhibition of cancer cell migration” value with T47D breast cancer cells [3] is “improvements over MN1186”. The “inhibition of cancer cell proliferation relative to parent compounds” value in the experiment with T47D breast cancer cells [4] was “inhibit cancer cell proliferation better than parent compounds”.
For `CC(C)CC1c2[nH]c3cc(Cl)ccc3c2CCN1C(=O)CNC(=O)OC(C)(C)C` (centres unmarked) [MN1228], in that order: “improvements over MN1186” and “inhibit cancer cell proliferation better than parent compounds”.
The matching figures for `CC(C)CC1c2[nH]c3cc(F)ccc3c2CCN1C(=O)CCCCNC(=O)OC(C)(C)C` (centres unmarked) [MN1229]: “improvements over MN1186” and “inhibit cancer cell proliferation better than parent compounds”.
Regarding `Cc1ccc2[nH]c3c(c2c1)CCN(C(=O)C1CCC(CNC(=O)OC(C)(C)C)CC1)C3CC(C)C` (centres unmarked) [MN1265], in the experiment on T47D breast cancer cells [3], the IC50 is 770 nM.
Consider `CC(C)CC1c2[nH]c3ccc(F)cc3c2CCN1C(=O)C1CCC(CNC(=O)OC(C)(C)C)CC1` (centres unmarked) [MN1266], for which the IC50 with T47D breast cancer cells [3] was 1290 nM.

Source of the values: patent US11931347B2, “Method of screening for agents for differentiating stem cells” (MINERVA BIOTECHNOLOGIES CORPORATION, priority 2015, dated 2024).
